Data on 18 compounds can be found in PubChem BioAssay AID256 (DTP/NCI, 2004).

Structures are written as SMILES. Values joined by “and” are separate entries in the source; they are usually repeats but may differ in a detail not shown here. Identical values can stand only once. Toxic doses and inconclusive results are not listed.

This assay deals with CD2F1 mice, L1210 leukemia ip, survival T/C. In words: NCI In Vivo Anticancer Drug Screen. Data for tumor model L1210 Leukemia (intraperitoneal) in CD2F1 (CDF1) mice. As to conditions: higher = longer survival. The method, boiled down:
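Ratio T/C, where T is the treated-group value and C the vehicle-dosed control value, from mice implanted with a transplantable tumor.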

Where [1] appears, read: endpoint: mean survival time, dose: 100.0 mg/kg/injection, schedule: Q04DX003 (ip), vehicle: saline with Tween-80.
Setting [2] is: endpoint: mean survival time, dose: 200.0 mg/kg/injection, schedule: Q04DX003 (ip), vehicle: saline with Tween-80.
Where [3] appears, read: endpoint: mean survival time, dose: 6.25 mg/kg/injection, schedule: Q01DX009 (ip), vehicle: saline.
The mark [4] stands for this setting: endpoint: mean survival time, dose: 12.5 mg/kg/injection, schedule: Q01DX009 (ip), vehicle: saline.
The mark [5] stands for this setting: endpoint: mean survival time, dose: 25.0 mg/kg/injection, schedule: Q01DX009 (ip), vehicle: saline.
Where [6] appears, read: endpoint: mean survival time, dose: 100.0 mg/kg/injection, schedule: Q04DX002 (ip), vehicle: saline with Tween-80.
[7] abbreviates: endpoint: mean survival time, dose: 200.0 mg/kg/injection, schedule: Q04DX002 (ip), vehicle: saline with Tween-80.

In the case of `CCCCOC(=O)CCl`, the T/C reads like this: (endpoint: mean survival time, dose: 100.0 mg/kg/injection, schedule: Q01DX001 (ip), vehicle: saline) 100 % of control; (endpoint: mean survival time, dose: 200.0 mg/kg/injection, schedule: Q01DX001 (ip), vehicle: saline) 94 % of control.

Consider `CS(=O)(=O)OCCN(CCOS(C)(=O)=O)c1ccc(C=Nc2ccc(-c3csc(COc4ccccc4)n3)cc2)cc1`, for which the T/C is, setting by setting: (endpoint: mean survival time, dose: 12.5 mg/kg/injection, schedule: Q01DX009 (ip), vehicle: Klucel (hydroxypropylcellulose) (HPC)) 119 % of control; (endpoint: mean survival time, dose: 25.0 mg/kg/injection, schedule: Q01DX009 (ip), vehicle: Klucel (hydroxypropylcellulose) (HPC)) 110 % of control; (endpoint: mean survival time, dose: 50.0 mg/kg/injection, schedule: Q01DX009 (ip), vehicle: Klucel (hydroxypropylcellulose) (HPC)) 112 % of control; (endpoint: mean survival time, dose: 100.0 mg/kg/injection, schedule: Q01DX009 (ip), vehicle: Klucel (hydroxypropylcellulose) (HPC)) 115 % of control; (endpoint: mean survival time, dose: 200.0 mg/kg/injection, schedule: Q01DX009 (ip), vehicle: Klucel (hydroxypropylcellulose) (HPC)) 120 % of control; (endpoint: mean survival time, dose: 400.0 mg/kg/injection, schedule: Q01DX008 (ip), vehicle: Klucel (hydroxypropylcellulose) (HPC)) 150 % of control. Also, the T/C (endpoint: mean survival time, dose: 400.0 mg/kg/injection, schedule: Q01DX009 (ip), vehicle: Klucel (hydroxypropylcellulose) (HPC)) is 106 % of control and 107 % of control.

For `CNC(=O)Oc1ccc(S(=O)(=O)c2ccc(OC(=O)NC)cc2)cc1`, the T/C (endpoint: median survival time, dose: 12.5 mg/kg/injection, schedule: Q01DX009 (ip), vehicle: saline with Tween-80) is 103 % of control; the T/C (endpoint: median survival time, dose: 25.0 mg/kg/injection, schedule: Q01DX009 (ip), vehicle: saline with Tween-80) was 115 % of control and 112 % of control; the T/C (endpoint: median survival time, dose: 43.0 mg/kg/injection, schedule: Q01DX005 (ip), vehicle: saline with Tween-80) is 113 % of control; the T/C (endpoint: median survival time, dose: 43.0 mg/kg/injection, schedule: Q01DX009 (ip), vehicle: saline with Tween-80) was 102 % of control; the T/C (endpoint: median survival time, dose: 50.0 mg/kg/injection, schedule: Q01DX009 (ip), vehicle: saline with Tween-80) is 120 % of control; the T/C (endpoint: median survival time, dose: 72.0 mg/kg/injection, schedule: Q01DX005 (ip), vehicle: saline with Tween-80) is 108 % of control and 109 % of control. For the same compound, the T/C runs as follows: (endpoint: median survival time, dose: 72.0 mg/kg/injection, schedule: Q01DX009 (ip), vehicle: saline with Tween-80) 101 % of control; (endpoint: median survival time, dose: 100.0 mg/kg/injection, schedule: Q01DX009 (ip), vehicle: saline with Tween-80) 122 % of control; (endpoint: median survival time, dose: 120.0 mg/kg/injection, schedule: Q01DX005 (ip), vehicle: saline with Tween-80) 109 % of control and 112 % of control; (endpoint: median survival time, dose: 120.0 mg/kg/injection, schedule: Q01DX009 (ip), vehicle: saline with Tween-80) 106 % of control; (endpoint: median survival time, dose: 200.0 mg/kg/injection, schedule: Q01DX005 (ip), vehicle: saline with Tween-80) 104 % of control and 109 % of control; (endpoint: median survival time, dose: 200.0 mg/kg/injection, schedule: Q01DX009 (ip), vehicle: saline with Tween-80) 151 % of control. Also, the T/C (endpoint: median survival time, dose: 333.0 mg/kg/injection, schedule: Q01DX005 (ip), vehicle: saline with Tween-80) is 109 % of control.

For `CC1(C)CC(=O)C=C(NCc2ccccc2)C1`, the T/C is, setting by setting: under setting [1], 93 % of control; under setting [2], 91 % of control.

With `O=C1OCCCC1O` (configuration not stated), the T/C (endpoint: mean survival time, dose: 150.0 mg/kg/injection, schedule: Q01DX001 (ip), vehicle: saline) is 97 % of control.

`CCOC(=O)C(C)(C(=O)OCC)c1cc2ccccc2c2ccccc12`: the T/C reads like this: (endpoint: mean survival time, dose: 100.0 mg/kg/injection, schedule: Q01DX001 (ip), vehicle: Klucel (hydroxypropylcellulose) (HPC)) 104 % of control; (endpoint: mean survival time, dose: 200.0 mg/kg/injection, schedule: Q01DX001 (ip), vehicle: Klucel (hydroxypropylcellulose) (HPC)) 104 % of control; (endpoint: mean survival time, dose: 400.0 mg/kg/injection, schedule: Q01DX001 (ip), vehicle: Klucel (hydroxypropylcellulose) (HPC)) 104 % of control.

For the compound `NC(N)=Nc1cccc(OCCCOc2ccccc2)c1`, the T/C (endpoint: mean survival time, dose: 18.75 mg/kg/injection, schedule: Q01DX001 (ip), vehicle: saline with Tween-80) is 102 % of control; the T/C (endpoint: mean survival time, dose: 37.5 mg/kg/injection, schedule: Q01DX001 (ip), vehicle: saline with Tween-80) was 98 % of control; the T/C (endpoint: mean survival time, dose: 75.0 mg/kg/injection, schedule: Q01DX001 (ip), vehicle: saline with Tween-80) is 97 % of control.

In the case of `O=C(O)/C=C/C(=O)NCc1ccco1`, the T/C by setting is: under setting [1], 94 % of control; under setting [2], 94 % of control; (endpoint: mean survival time, dose: 400.0 mg/kg/injection, schedule: Q04DX003 (ip), vehicle: saline with Tween-80) 94 % of control.

In the case of `FC(F)(F)COP1(OCC(F)(F)F)=NP(OCC(F)(F)F)(OCC(F)(F)F)=NP(c2ccccc2)(c2ccccc2)=N1`, the T/C by setting is: (endpoint: mean survival time, dose: 100.0 mg/kg/injection, schedule: Q04DX003 (ip), vehicle: saline) 102 % of control; (endpoint: mean survival time, dose: 200.0 mg/kg/injection, schedule: Q04DX003 (ip), vehicle: saline) 100 % of control; (endpoint: mean survival time, dose: 400.0 mg/kg/injection, schedule: Q04DX003 (ip), vehicle: saline) 100 % of control.

In the case of `ON=C(CCl)CCl`, the T/C (endpoint: mean survival time, dose: 1.56 mg/kg/injection, schedule: Q01DX009 (ip), vehicle: saline) is 96 % of control; the T/C (endpoint: mean survival time, dose: 3.12 mg/kg/injection, schedule: Q01DX009 (ip), vehicle: saline) is 96 % of control; the T/C under setting [3] was 93 % of control.

For the compound `ClC1CN2CCC1CC2` (configuration not stated), the T/C runs as follows: under setting [4], 95 % of control; under setting [5], 90 % of control and 105 % of control; (endpoint: mean survival time, dose: 50.0 mg/kg/injection, schedule: Q01DX009 (ip), vehicle: saline) 93 % of control and 94 % of control.

Regarding `CC(O)c1ccc[n+](CCc2cn(C)c3ccccc23)c1` (configuration not stated), the T/C is, setting by setting: under setting [3], 97 % of control; (endpoint: mean survival time, dose: 6.25 mg/kg/injection, schedule: Q04DX003 (ip), vehicle: saline) 94 % of control; under setting [4], 96 % of control; (endpoint: mean survival time, dose: 12.5 mg/kg/injection, schedule: Q04DX003 (ip), vehicle: saline) 92 % of control; under setting [5], 105 % of control; (endpoint: mean survival time, dose: 25.0 mg/kg/injection, schedule: Q04DX003 (ip), vehicle: saline) 92 % of control.

With `Cc1n[nH]c2ccc([N+](=O)[O-])cc2c1=O`, where the note is “endpoint: mean survival time, dose: 100.0 mg/kg/injection, schedule: Q01DX009 (ip), vehicle: saline with Tween-80”, the T/C is 89 % of control.

Take `Nc1nc(N)c(CCCCc2ccc(NC(=O)c3cccc(S(=O)(=O)F)c3)cc2)c(N)n1`: the T/C is 96 % of control (endpoint: mean survival time, dose: 50.0 mg/kg/injection, schedule: Q01DX001 (ip), vehicle: saline with Tween-80); 107 % of control (endpoint: mean survival time, dose: 100.0 mg/kg/injection, schedule: Q01DX001 (ip), vehicle: saline with Tween-80); 100 % of control (endpoint: mean survival time, dose: 200.0 mg/kg/injection, schedule: Q01DX001 (ip), vehicle: saline with Tween-80).

Take `CCCCOC(=O)c1c(C(=O)OCCCC)c(-c2ccccc2)c2c(c1-c1ccccc1)-c1cccc3cccc-2c13`: the T/C under setting [6] is 97 % of control; the T/C under setting [7] was 86 % of control; the T/C (endpoint: mean survival time, dose: 400.0 mg/kg/injection, schedule: Q04DX002 (ip), vehicle: saline with Tween-80) was 90 % of control.

Take `CCOC(=O)c1cc(OC(C)=O)c2c(ccc3ccccc32)c1C`: the T/C reads like this: (endpoint: mean survival time, dose: 100.0 mg/kg/injection, schedule: Q04DX003 (ip), vehicle: Klucel (hydroxypropylcellulose) (HPC)) 101 % of control; (endpoint: mean survival time, dose: 200.0 mg/kg/injection, schedule: Q04DX003 (ip), vehicle: Klucel (hydroxypropylcellulose) (HPC)) 104 % of control; (endpoint: mean survival time, dose: 400.0 mg/kg/injection, schedule: Q04DX003 (ip), vehicle: Klucel (hydroxypropylcellulose) (HPC)) 97 % of control.

Regarding `[Co+3].[NH-]CC(=O)O.[NH-]CC(=O)O.[NH-]CC(=O)O`, the T/C was 104 % of control and 101 % of control (endpoint: mean survival time, dose: 25.0 mg/kg/injection, schedule: Q04DX002 (ip), vehicle: saline with Tween-80); 104 % of control and 96 % of control (endpoint: mean survival time, dose: 50.0 mg/kg/injection, schedule: Q04DX002 (ip), vehicle: saline with Tween-80); 104 % of control and 106 % of control under setting [6]; 117 % of control under setting [7].

As for `CC(NCCN1CC1)C1CC1` (configuration not stated), the T/C is 94 % of control (endpoint: mean survival time, dose: 17.6 mg/kg/injection, schedule: Q01DX009 (ip), vehicle: saline); 100 % of control (endpoint: mean survival time, dose: 26.4 mg/kg/injection, schedule: Q01DX009 (ip), vehicle: saline); 105 % of control (endpoint: mean survival time, dose: 40.0 mg/kg/injection, schedule: Q01DX009 (ip), vehicle: saline); 117 % of control (endpoint: mean survival time, dose: 60.0 mg/kg/injection, schedule: Q01DX009 (ip), vehicle: saline).
